From patent US7256180B2 (priority 2000, dated 2007)
Where two headings read alike, the source gives them in different places. {C11P} = undecylphosphate group; {Acr} = acridine group

Tests used:
[1] = tested on: HSV-1; format: cell-based, Herpes Simplex Virus 1; details: BHK cells, oligonucleotide 3.0 μM
[2] = tested on: HSV-1 virus (strain L2); format: cell-based, Herpes Simplex Virus 1; details: Vero cells, 24 hours
[3] = tested on: HSV-1 (strain CI); format: in vivo, mice

## Free Anti-HSV: CGTTCCTCCTGU, 5′ undecylphosphate and 3′ acridine modified (5' {C11P}, 3' {Acr}, sugars by position and backbone not given here)
[1]
  HSV-1 Infectious Titre (CPE50/ml) (n = 7): 50 (±14) × 10^2 CPE50/ml
[2]; oligo conc. 0.2 μM
  HSV-1 Infectious Titre (CPE50/ml) (n = 7): 0.9 (±0.4) × 10^5 CPE50/ml
[2]; oligo conc. 1.0 μM
  HSV-1 Infectious Titre (CPE50/ml) (n = 7): 2.3 (±0.7) × 10^3 CPE50/ml
[2]; oligo conc. 5.0 μM
  HSV-1 Infectious Titre (CPE50/ml) (n = 7): 1.6 (±0.4) × 10^2 CPE50/ml
[3]; mouse, in vivo, iv
  Animals Survived/No. of Animals in group, Exp. 1: 1/10
  Animals Survived/No. of Animals in group, Exp. 2: 1/10
  Animals Survived/No. of Animals in group, Exp. 3: 0/10
[3]; over Exp. 1-3
  % Survival: 7.0%
